Source: PMC8524670 (Pharmacology Research & Perspectives, 2021)

Tests used:
[1] = target: T1, CYP2B6 (Homo sapiens, UniProt P20813); assay: CYP reversible inhibition in HLMs; assay type: in vitro ADME
T1 sequence (P20813 1-491): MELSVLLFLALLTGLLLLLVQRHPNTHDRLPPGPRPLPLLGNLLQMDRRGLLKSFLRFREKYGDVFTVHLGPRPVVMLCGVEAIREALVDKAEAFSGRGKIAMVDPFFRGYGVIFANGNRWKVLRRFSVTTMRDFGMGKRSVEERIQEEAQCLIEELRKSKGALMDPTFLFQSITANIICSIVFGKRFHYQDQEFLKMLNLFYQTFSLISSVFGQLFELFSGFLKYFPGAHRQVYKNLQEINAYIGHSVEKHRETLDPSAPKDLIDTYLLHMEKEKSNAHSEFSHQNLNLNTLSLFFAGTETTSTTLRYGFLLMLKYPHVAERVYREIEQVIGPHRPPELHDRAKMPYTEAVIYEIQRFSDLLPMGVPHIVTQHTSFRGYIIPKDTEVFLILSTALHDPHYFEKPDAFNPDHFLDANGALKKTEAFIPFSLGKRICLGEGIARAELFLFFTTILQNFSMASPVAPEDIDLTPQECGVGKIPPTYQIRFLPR

[2] = system: CYP2C8; assay: CYP induction in human hepatocytes; assay type: in vitro ADME
[3] = target: T2, OATP1B1 (Homo sapiens, UniProt Q9Y6L6); assay: SLC inhibition assay in HEK293 cells; assay type: in vitro ADME; conditions: 0.05–5 µM
T2 sequence (Q9Y6L6 1-691): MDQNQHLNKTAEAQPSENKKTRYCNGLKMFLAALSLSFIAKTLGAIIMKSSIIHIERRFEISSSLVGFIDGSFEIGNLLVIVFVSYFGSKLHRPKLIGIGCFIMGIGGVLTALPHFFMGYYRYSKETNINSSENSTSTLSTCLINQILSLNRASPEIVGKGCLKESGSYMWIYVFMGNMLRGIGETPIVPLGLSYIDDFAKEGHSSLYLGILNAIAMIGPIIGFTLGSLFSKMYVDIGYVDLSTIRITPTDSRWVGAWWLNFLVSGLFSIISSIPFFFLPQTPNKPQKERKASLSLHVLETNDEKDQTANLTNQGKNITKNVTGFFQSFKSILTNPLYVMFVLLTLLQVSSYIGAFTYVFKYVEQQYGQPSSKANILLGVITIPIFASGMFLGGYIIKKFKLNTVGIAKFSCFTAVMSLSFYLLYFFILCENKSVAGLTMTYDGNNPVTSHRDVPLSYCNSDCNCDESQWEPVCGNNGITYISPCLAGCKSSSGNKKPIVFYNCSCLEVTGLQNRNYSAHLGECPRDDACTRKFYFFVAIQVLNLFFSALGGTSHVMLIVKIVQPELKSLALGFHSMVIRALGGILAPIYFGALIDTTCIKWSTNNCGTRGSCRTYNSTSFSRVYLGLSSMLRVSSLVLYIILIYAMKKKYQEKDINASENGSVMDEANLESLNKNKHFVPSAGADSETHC

[4] = target: T3, OAT3 (Homo sapiens, UniProt Q8TCC7); assay: SLC inhibition assay in HEK293 cells; assay type: in vitro ADME
T3 sequence (Q8TCC7 1-542): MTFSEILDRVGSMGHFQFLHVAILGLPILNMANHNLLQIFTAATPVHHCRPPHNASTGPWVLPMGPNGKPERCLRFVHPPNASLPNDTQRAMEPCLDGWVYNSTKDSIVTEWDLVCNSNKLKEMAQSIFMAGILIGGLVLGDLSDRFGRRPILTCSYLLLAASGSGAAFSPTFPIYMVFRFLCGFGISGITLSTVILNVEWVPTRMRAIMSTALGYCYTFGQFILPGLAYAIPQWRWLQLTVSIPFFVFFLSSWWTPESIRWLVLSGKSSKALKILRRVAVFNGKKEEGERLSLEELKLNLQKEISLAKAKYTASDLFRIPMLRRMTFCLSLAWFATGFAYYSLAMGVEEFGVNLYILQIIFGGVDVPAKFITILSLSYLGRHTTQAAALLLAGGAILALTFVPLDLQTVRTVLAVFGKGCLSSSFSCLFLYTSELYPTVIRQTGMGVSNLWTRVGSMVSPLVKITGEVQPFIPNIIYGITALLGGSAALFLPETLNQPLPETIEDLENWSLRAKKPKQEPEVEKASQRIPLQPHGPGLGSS

[5] = target: T4, CYP1A2 (Homo sapiens, UniProt P05177); conditions: 10 µM zanubrutinib, 30 min pre-incubation with HLMs and NADPH
T4 sequence (P05177 1-516): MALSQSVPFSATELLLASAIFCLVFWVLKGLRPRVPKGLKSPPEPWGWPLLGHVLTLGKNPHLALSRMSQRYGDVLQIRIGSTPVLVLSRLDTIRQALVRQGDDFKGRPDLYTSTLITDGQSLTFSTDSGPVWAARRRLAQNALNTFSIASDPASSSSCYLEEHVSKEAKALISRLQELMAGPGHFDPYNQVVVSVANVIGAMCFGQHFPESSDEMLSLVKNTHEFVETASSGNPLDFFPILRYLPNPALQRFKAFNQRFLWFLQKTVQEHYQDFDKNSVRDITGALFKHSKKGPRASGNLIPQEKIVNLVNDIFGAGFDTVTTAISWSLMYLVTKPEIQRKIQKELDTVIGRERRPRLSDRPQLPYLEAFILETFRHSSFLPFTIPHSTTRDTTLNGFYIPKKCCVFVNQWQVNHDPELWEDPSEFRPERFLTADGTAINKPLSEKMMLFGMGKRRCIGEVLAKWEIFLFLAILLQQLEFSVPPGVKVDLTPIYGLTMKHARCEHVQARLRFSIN

[6] = system: CYP1A2; assay: in vitro; conditions: human
[7] = target: CYP2C9 (Homo sapiens, UniProt P11712); assay: CYP reversible inhibition in HLMs; conditions: diclofenac
[8] = human, HEK293 cells overexpressing OAT3 (and MOCK cells), probe estrone sulfate

CYP2C9, sequence (P11712 whole entry): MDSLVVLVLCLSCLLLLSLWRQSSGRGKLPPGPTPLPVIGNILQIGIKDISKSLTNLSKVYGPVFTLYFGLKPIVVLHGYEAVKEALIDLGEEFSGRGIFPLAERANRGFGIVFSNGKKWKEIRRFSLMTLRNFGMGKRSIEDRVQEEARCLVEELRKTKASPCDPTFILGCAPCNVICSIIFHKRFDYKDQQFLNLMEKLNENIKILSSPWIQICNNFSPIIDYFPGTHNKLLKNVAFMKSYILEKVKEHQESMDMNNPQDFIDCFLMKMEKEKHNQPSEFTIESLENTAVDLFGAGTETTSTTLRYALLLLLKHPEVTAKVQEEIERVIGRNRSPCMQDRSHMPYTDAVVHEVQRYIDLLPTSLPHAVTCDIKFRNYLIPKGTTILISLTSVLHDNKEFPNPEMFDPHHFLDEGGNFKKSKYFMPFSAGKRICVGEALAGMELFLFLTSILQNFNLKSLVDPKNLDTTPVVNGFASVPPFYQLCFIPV

SMILES: C=CC(=O)N1CCC([C@@H]2CCNc3c(C(N)=O)c(-c4ccc(Oc5ccccc5)cc4)nn32)CC1 [zanubrutinib]
- IC50 [1]: 121 µM
- Ki ([1]; Ki, bupropion, Ki = IC50/2): 60.5 µM
- Ki ([1]; Kiu, bupropion, unbound Ki): 47.8 µM
- R1 ([1]; bupropion, DDI basic model, hepatic): 1.00
- Ah ([1]; bupropion, static model term, liver inhibition): 1.00
- Inhibition of uptake activity [3]: not inhibited
- Inhibition of uptake activity ([4]; 0.05–5 µM): not inhibited
- activity at 0.05 µM [4, 8]: 90 ± 4.2%
- activity at 0.2 µM [4, 8]: 97.8 ± 7.7%
- activity at 1 µM [4, 8]: 113 ± 27%
- activity at 5 µM [4, 8]: 199 ± 34%
- Percent loss of enzymatic activity [5]: 8.10%
- EC50 at 2 days [6]: 0.29 µM
- R1 ([7]; DDI basic model, hepatic): 1.04
- Ah ([7]; static model term, liver inhibition): 0.96
